The results in this text go back to patent US5395823A, “Neuropeptide Y agonists and partial agonists” (Merrell Dow Pharmaceuticals Inc., priority 1993, dated 1995).

pIC50: −log10 of the molar value.

Broadly, the pIC50 is −log10 of the IC50, conventionally taken in molar units. A lower pIC50 goes with a large IC50.

This assay concerns the target receptors for neuropeptide Y (porcine spleen crude membranes). As to the kind of experiment: 125I-Bolton-Hunter-neuropeptide Y binding in porcine spleen crude membranes. The settings on record: competition with 0.1 nM BHNPY, room temperature 2 hr, pH 7.4. The method, then:
145:21-9 (1988). ^125 I-Bolton-Hunter-neuropeptide Y (BHNPY; Amersham) binding was carried out in porcine spleen crude membranes. Membranes from frozen spleen were prepared as described previously for tachykinin peptide binding studies (Buck et al., 1984). An aliquot of membrane preparation (approximately 15 mg tissue) was incubated at room temperature for 2 hr in buffer (pH 7.4) containing the peptide analog, 130 mM NaCl, 2.7 mM KCl, 2 mM MgCl2, 1.8 mM CaCl2, 20 mM HEPES, 4 mg/ml BSA, 40 μg/ml bacitracin, 4 μg/ml leupeptin and […] chymostatin. BHNPY was included in a concentration of 0.1 nM and non-specific binding was determined by the inclusion of 1 μM pNPY. Samples were rapidly filtered over Whatman GF/C filters presoaked overnight in 0.5% histone (type II-AS; Sigma) and washed two times with ice-cold, plain HEPES-salt buffer (pH 7.4). IC50 values for test peptides were calculated from 6 to 10 point competition curves.

“Y--P--S--K--P--D--N--P--G--E--D--A--P--A--E--E--L--S--Y--Y--A--A--L--R--H- -Y--L--N--L--L--T--R--Q--R--Y--# [Example 1]” had a pIC50 of more than 7.30.
